Like-named read-outs stand apart in the source and are kept apart here.
Legend:
[1] = target: GDP-bound KRAS protein (aa 1-169), containing both G12C and C118A amino acid substitutions (Homo sapiens, UniProt P01116, C118A/G12C); experiment: Coupled nucleotide exchange assay (SOS-mediated, AlphaScreen); format: biochemical; details: 5 min compound pre-incubation
[2] = tested on: Phosphorylation of ERK1/2 in MIA PaCa-2 cells; experiment: Phospho-ERK1/2 MSD assay in MIA PaCa-2 cells; format: cell-based; details: read-out: p-ERK IC50 (2 h; MIA PaCa-2), 2 h compound treatment
Summary of the method: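 MSD electrochemiluminescence readout of phospho-ERK1/2 in whole-cell lysates, IC50 by 4-parameter logistic fit. Compound titrations were applied for 2 or 4 h at 37 °C, 5% CO2, followed by 10 ng/mL EGF stimulation for 10 min before lysis.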

GDP-bound KRAS protein (aa 1-169), containing both G12C and C118A amino acid substitutions, sequence (P01116 1-169 isoform P01116-2 G12C/C118A): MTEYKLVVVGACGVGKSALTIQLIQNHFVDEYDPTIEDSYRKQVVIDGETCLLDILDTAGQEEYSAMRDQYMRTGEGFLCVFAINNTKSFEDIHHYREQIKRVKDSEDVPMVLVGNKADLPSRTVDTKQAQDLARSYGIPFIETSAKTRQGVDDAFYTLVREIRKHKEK

Structure (SMILES)	Coupled exchange IC50 (5 min) [1]	IC50 [2]	IC50 ([2]; Homo sapiens, MIA PaCa-2, 2 h)	IC50 ([1]; read-out: Coupled exchange IC50 (5 min))
C=CC(=O)N1CCN(c2nc(=O)n(-c3c(C)ccnc3CC)c3nc(-c4c(O)cccc4F)c(Cl)cc23)[C@@H](C)C1 (single isomer, unassigned) [Example 55-10-1]	0.065 | nda μM	82 nM		
C=CC(=O)N1CCN(c2nc(=O)n(-c3c(C)ccnc3C(C)C)c3nc(-c4ccccc4F)c(Cl)cc23)[C@@H](C(F)F)C1 (single isomer, unassigned) [Example 78-3-2]	0.094 | nda μM		80 nM	
C=CC(=O)N1CCN(c2nc(=O)n(-c3c(C)cccc3C3CC3)c3nc(-c4ccccc4F)c(Cl)cc23)[C@@H](C)C1 (single isomer, unassigned) [Example 56-5-1]	0.154 | nda μM	188 nM		
C=CC(=O)N1CCN(c2nc(=O)n(-c3c(C(C)C)ncnc3C(C)C)c3nc(-c4ccc(C#N)cc4F)c(Cl)cc23)[C@@H](C)C1 [Example 87-4, 4-(6-chloro-1-(4,6-di(2-propanyl)-5-pyrimidinyl)-4-((2S)-2-methyl-4-(2-propenoyl)-1-piperazinyl)-2-oxo-1,2-dihydropyrido[2,3-d]pyrimidin-7-yl)-3-fluorobenzonitrile]	0.254 | nda μM		262 nM	
C=CC(=O)N1CCN(c2nc(=O)n(-c3c(O)cccc3C(C)C)c3nc(-c4ccccc4F)c(Cl)cc23)[C@@H](C)C1 (single isomer, unassigned) [Example 55-26-2]	0.031 | nda μM		124 nM	
C=CC(=O)N1CCN(c2nc(=O)n(-c3ccccc3C3(C)CC3)c3nc(-c4c(O)cccc4F)c(Cl)cc23)[C@@H](C)C1 [Example 54-97, 6-chloro-7-(2-fluoro-6-hydroxyphenyl)-1-(2-(1-methylcyclopropyl)phenyl)-4-((2S)-2-methyl-4-(2-propenoyl)-1-piperazinyl) pyrido[2,3-d]pyrimidin-2(1H)-one]	0.128 | nda μM		256 nM	
C=CC(=O)N1C[C@@H](C)N(c2nc(=O)n(-c3c(C)ccnc3C(C)C)c3nc(-c4c(O)cccc4F)c(Cl)cc23)[C@@H](C)C1 (atropisomer, axis not shown; (M)) [Example 73-13, (M)-6-chloro-4-(cis-2,6-dimethyl-4-(2-propenoyl)-1-piperazinyl)-7-(2-fluoro-6-hydroxyphenyl)-1-(4-methyl-2-(2-propanyl)-3-pyridinyl)pyrido[2,3-d]pyrimidin-2(1H)-one]	0.023 | nda μM		17 nM	
C=CC(=O)N1CCN(c2nc(=O)n(-c3c(C4CC4)ccnc3C)c3nc(-c4c(O)cccc4F)c(F)cc23)[C@@H](C)C1 [Example 58-19, 1-(4-cyclopropyl-2-methyl-3-pyridinyl)-6-fluoro-7-(2-fluoro-6-hydroxyphenyl)-4-((2S)-2-methyl-4-(2-propenoyl)-1-piperazinyl)pyrido[2,3-d]pyrimidin-2(1H)-one]	0.44 | nda μM		957 nM	
C=CC(=O)N1CCN(c2nc(=O)n(-c3c(C)ccnc3C(C)C)c3nc(-c4c(O)cc(F)cc4F)c(F)cc23)[C@@H](C)C1 (atropisomer, axis not shown; (M)) [Example 65-3, (M)-7-(2,4-difluoro-6-hydroxyphenyl)-6-fluoro-1-(4-methyl-2-(2-propanyl)-3-pyridinyl)-4-((2S)-2-methyl-4-(2-propenoyl)-1-piperazinyl)pyrido[2,3-d]pyrimidin-2(1H)-one]	0.096 | nda μM		100 nM	
C=CC(=O)N1CCN(c2nc(=O)n(-c3ccnn3C3CCC3)c3nc(-c4c(O)cccc4F)c(Cl)cc23)[C@@H](C)C1 [Example 54-28, 6~chloro-1-(1-cyclobutyl-1H-pyrazol-5-yl)-7-(2-fluoro-6-hydroxyphenyl)-4-((2S)-2-methyl-4-(2-propenoyl)-1-piperazinyl) pyrido[2,3-d]pyrimidin-2(1H)-one]	0.19 | nda μM		245 nM	
C=CC(=O)N1CCN(c2nc(=O)n(-c3ccccc3CC(F)(F)F)c3nc(-c4c(O)cccc4F)c(Cl)cc23)[C@@H](C)C1 [Example 55-6, 6-chloro-7-(2-fluoro-6-hydroxyphenyl)-4-((2S)-2-methyl-4-(2-propenoyl)-1-piperazinyl)-1-(2-(2,2,2-trifluoroethyl)phenyl)pyrido[2,3-d]pyrimidin-2(1H)-one]	0.318 | nda μM		317 nM	
C=CC(=O)N1CCN(c2nc(=O)n(-c3c(C)cccc3C(C)C)c3nc(-c4ccccc4F)c(C)cc23)[C@@H](C)C1 (single isomer, unassigned) [Example 102-2]	0.182 | nda μM		211 nM	
C=CC(=O)N1CCN(c2nc(=O)n(-c3ncncc3C(C)C)c3nc(-c4ccccc4F)c(Cl)cc23)[C@@H](C)C1 [Example 99, 6-Chloro-7-(2-fluorophenyl)-4-((2S)-2-methyl-4-(2-propenoyl)-1-piperazinyl)-1-(5-(2-propanyl)-4-pyrimidinyl)pyrido[2,3-d]pyrimidin-(1H)-one]		72 nM		237 nM
C=CC(=O)N1CCN(c2nc(=O)n(-c3ccccc3C(C)C)c3cc(-c4ccccc4F)c(Cl)nc23)[C@@H](C)C1 [Example 110, 6-Chloro-7-(2-fluorophenyl)-4-((2S)-2-methyl-4-(2-propenoyl)-1-piperazinyl)-1-(2-(2-propanyl)phenyl)pyrido[3,2-d]pyrimidin-2(1H)-one]	0.166 | nda μM		426 nM	
C=CC(=O)N1CCN(c2nc(=O)n(-c3c(C)ccnc3C(C)C)c3nc(-c4c(O)cccc4F)c(F)cc23)CC1 (single isomer, unassigned) [Example 75-4, (M)-6-fluoro-7-(2-fluoro-6-hydroxyphenyl)-1-(4-methyl-2-(2-propanyl)-3-pyridinyl)-4-(4-(2-propenoyl)-1-piperazinyl)pyrido[2,3-d]pyrimidin-2(1H)-one]	0.552 | nda μM		543 nM	
C=CC(=O)N1CCN(c2nc(=O)n(-c3c(C)ncnc3C(C)C)c3nc(-c4cc(F)ccc4F)c(Cl)cc23)[C@@H](C)C1 (single isomer, unassigned) [Example 55-39-2]	0.121 | nda μM		111 nM	
C=CC(=O)N1CCN(c2nc(=O)n(-c3c(C)cc(CO)cc3C(C)C)c3nc(-c4ccccc4F)c(Cl)cc23)[C@@H](C)C1 [80-2, 6-chloro-7-(2-fluorophenyl)-1-(4-(hydroxymethyl)-2-methyl-6-(2-propanyl)phenyl)-4-((2S)-2-methyl-4-(2-propenoyl)-1-piperazinyl) pyrido[2,3-d] pyrimidin-2(1H)-one]	0.11 | nda μM		97 nM	
C=CC(=O)N1CCN(c2nc(=O)n(-c3c(C(C)C)nc(OC)nc3C(C)C)c3nc(-c4ccccc4F)c(Cl)cc23)[C@@H](C)C1 [Example 55-37, 6-chloro-7-(2-fluorophenyl)-1-(2-methoxy-4,6-di(2-propanyl)-5-pyrimidinyl)-4-((2S)-2-methyl-4-(2-propenoyl)-1-piperazinyl)pyrido[2,3-d]pyrimidin-2(1H)-one]	0.03 | nda μM		57 nM	
C=CC(=O)N1CCN(c2nc(=O)n(-c3c(C(C)C)nc(N)nc3C(C)C)c3nc(-c4ccccc4F)c(Cl)cc23)[C@@H](C)C1 [Example 139, 1-(2-Amino-4,6-di(2-propanyl)-5-pyrimidinyl)-6-chloro-7-(2-fluorophenyl)-4-((2S)-2-methyl-4-(2-propenoyl)-1-piperazinyl)pyrido[2,3-d]pyrimidin-2(1H)-one]	0.117 | nda μM		25 nM	
C=CC(=O)N1CCN(c2nc(=O)n(-c3c(C)cccc3C(C)C)c3nc(-c4c(C)ccc5[nH]ncc45)c(F)cc23)[C@@H](C)C1 [68-2, 6-fluoro-7-(5-methyl-1H-indazol-4-yl)-1-(2-methyl-6-(2-propanyl)phenyl)-4-((2S)-2-methyl-4-(2-propenoyl)-1-piperazinyl)pyrido[2,3-d]pyrimidin-2(1H)-one]	0.947 | nda μM		999 nM	
C=CC(=O)N1CCN(c2nc(=O)n(-c3c(C)ccnc3C(C)C)c3nc(-c4c(O)cccc4F)c(Cl)cc23)C[C@H]1C (atropisomer, axis not shown; (M)) [Example 129, (M)-6-Chloro-7-(2-fluoro-6-hydroxyphenyl)-1-(4-methyl-2-(2-propanyl)-3-pyridinyl)-4-((3R)-3-methyl-4-(2-propenoyl)-1-piperazinyl)pyrido[2,3-d]pyrimidin-2(1H)-one]	0.045 | nda μM		95 nM	
C=CC(=O)N1CCN(c2nc(=O)n(-c3c(C)cccc3CC)c3nc(-c4ccccc4F)c(Cl)cc23)[C@@H](C)C1 (single isomer, unassigned) [Example 55-9-2]	0.158 | nda μM	298 nM		
C=CC(=O)N1CCN(c2nc(=O)n(-c3c(C)ccnc3C(C)C)c3nc(-c4ccccc4F)c(C)cc23)[C@@H](C)C1 [Example 74-2, 7-(2-fluorophenyl)-6-methyl-1-(4-methyl-2-(2-propanyl)-3-pyridinyl)-4-((2S)-2-methyl-4-(2-propenoyl)-1-piperazinyl)pyrido[2,3-d]pyrimidin-2(1H)-one]	0.228 | nda μM		300 nM	
C=CC(=O)N1CCN(c2nc(=O)n(-c3c(C)ccnc3C(C)C)c3nc(-c4cc(O)cc(Cl)c4Cl)c(F)cc23)[C@@H](C)C1 (single isomer, unassigned) [Example 58-7-2]	0.041 | nda μM	515 nM		
